# US20210221848A1, “POLYMYXIN DERIVATIVES AND THEIR USE IN COMBINATION THERAPY TOGETHER WITH DIFFERENT ANTIBIOTICS” (priority 2014, published 2021)
# Tests used:
# [1] = system: E. coli strains with elevated MICs to Polymyxin B; assay: MIC against strains with elevated MICs to Polymyxin B; format: cell-based, Escherichia coli; settings: Table 6D; for MIC E. coli 058: strain 058, elevated MIC to Polymyxin B; for MIC E. coli 061: strain 061, elevated MIC to Polymyxin B; for MIC E. coli 059: strain 059, elevated MIC to Polymyxin B; for MIC E. coli 060: strain 060, elevated MIC to Polymyxin B
# Procedure: (§1) The inoculum was prepared by making a direct suspension of isolated colonies (selected from an 18-24 hour Mueller-Hinton agar plate) adjusted to the 0.5 McFarland standard. […] The assays were performed in duplicate. […] In cases where the duplicate values varied by less than 2-fold, the lower of the two values is reported. If a variation of greater than 2-fold was observed, the assay was considered non-valid. Several of the compounds were subjected to multiple tests, and where this is the case, the MIC reflects the modal value obtained.
# (§2) The Further Synthesis Examples were tested against a range of Gram negative bacteria, and tested for HK-2 cell toxicity. All the worked examples, including the Synthesis and Further Synthesis Examples, were also tested against a range of Gram negative bacteria that are resistant to Polymyxin B (i.e. those strains where Polymyxin B has an elevated MIC value).
# [2] = system: A. baumanii strains with elevated MICs to Polymyxin B; assay: as above; format: cell-based, Acinetobacter baumannii; settings: Table 6D; for MIC A. baumannii 056: strain 056, elevated MIC to Polymyxin B; for MIC A. baumannii 053: strain 053, elevated MIC to Polymyxin B; for MIC A. baumannii 068: strain 068, elevated MIC to Polymyxin B; for MIC A. baumannii 070: strain 070, elevated MIC to Polymyxin B
# Procedure: as §1, §2
# [3] = system: P. aeruginosa strains with elevated MICs to Polymyxin B; assay: as above; format: cell-based, Pseudomonas aeruginosa; settings: Table 6D; for MIC P. aeruginosa 065: strain 065, elevated MIC to Polymyxin B; for MIC P. aeruginosa 066: strain 066, elevated MIC to Polymyxin B; for MIC P. aeruginosa 067: strain 067, elevated MIC to Polymyxin B
# Procedure: as §1, §2
# A. baumannii = settings: sole activity, Table 6C
# K. pneumoniae = settings: sole activity, Table 6C
# [4] = system: K. pneumoniae strains with elevated MICs to Polymyxin B; assay: MIC against strains with elevated MICs to Polymyxin B; format: cell-based, Klebsiella pneumoniae; settings: Table 6D; for MIC K. pneumoniae 062: strain 062, elevated MIC to Polymyxin B; for MIC K. pneumoniae 064: strain 064, elevated MIC to Polymyxin B; for MIC K. pneumoniae 063: strain 063, elevated MIC to Polymyxin B
# Procedure: as §1, §2
# E. coli = settings: sole activity, Table 6C
# P. aeruginosa = settings: sole activity, Table 6C
Substance,MIC E. coli 058 [1] [micrograms/mL],MIC E. coli 061 [1] [micrograms/mL],MIC A. baumannii 056 [2] [micrograms/mL],MIC P. aeruginosa 065 [3] [micrograms/mL],MIC P. aeruginosa 066 [3] [micrograms/mL],MIC P. aeruginosa 067 [3] [micrograms/mL],"MIC, A. baumannii ATCC BAA-747 (A. baumannii) [micrograms/mL]","MIC, A. baumannii NCTC 13424 (A. baumannii) [micrograms/mL]","MIC, K. pneumoniae ATCC 4352 (K. pneumoniae) [micrograms/mL]",MIC K. pneumoniae 062 [4] [micrograms/mL],MIC K. pneumoniae 064 [4] [micrograms/mL],"MIC, E. coli ATCC 25922 (E. coli) [micrograms/mL]","MIC, E. coli NCTC 13441 (E. coli) [micrograms/mL]","MIC, P. aeruginosa ATCC 27853 (P. aeruginosa) [micrograms/mL]","MIC, P. aeruginosa CCUG 59347 (P. aeruginosa) [micrograms/mL]",MIC E. coli 059 [1] [micrograms/mL],MIC E. coli 060 [1] [micrograms/mL],MIC A. baumannii 053 [2] [micrograms/mL],MIC A. baumannii 068 [2] [micrograms/mL],MIC K. pneumoniae 063 [4] [micrograms/mL],other results
5- (isobutoxy)piperi- dine-3-carbonyl Polymyxin B nonapeptide [Example D63],16,32,128,4,32,>256,0.25,0.25,0.125,128,4,0.06,0.125,0.5,0.5,–,–,–,–,–,"MIC, K. pneumoniae ATCC BAA-2146 (K. pneumoniae): 0.125 micrograms/mL"
5- isobutoxypiperidine- 3-carbonyl L- Thr-L-Dap- polymyxin B heptapeptide [Example D70],4,16,16,4,16,>256,0.06,0.125,0.06,64,6,0.125,0.125,0.25,0.5,8,4,>256,8,64,"MIC A. baumannii 070 [2]: 32 micrograms/mL; MIC K. pneumoniae 655 ([4]; strain 655, elevated MIC to Polymyxin B): 32 micrograms/mL"
5-(3- methylbutanamido) piperidine-3- carbonyl Polymyxin B nonapeptide [Example D64],64,64,256,64,64,>256,2,2,0.25,>256,128,0.25,0.25,1,1,128,64,>256,128,>256,"MIC A. baumannii 070 [2]: >256 micrograms/mL; MIC, K. pneumoniae ATCC BAA-2146 (K. pneumoniae): 0.25 micrograms/mL"
(S)-1-isobutyl piperazine-2- carbonyl-L-Thr- L-Dap-polymyxin B heptapeptide [Example D69],8,32,256,16,32,>256,0.25,0.5,0.125,–,32,0.25,0.125,0.5,0.5,16,8,>256,32,128,–
